Results from patent US7854940B2, “Broad spectrum preservation blends” (Arch Chemicals, Inc., priority 2004, dated 2010).

Key:
Assay in all cases: Challenge test in broth
Assay type in all cases: cell-based
Details in all cases: Tryptic Soy Broth, blend added at 0.5% v/v
[1] = test system: Candida albicans (ATCC 10231)
Source text: (§1) A challenge protocol similar to the CTFA method was followed to assess efficacy against a broad spectrum of microorganisms. The four separate inocula were: Staphylococcus aureus (ATCC 6538), Pseudomonas aeruginosa (ATCC 9027) and Enterobacter gergoviae (cosmetic isolate), Candida albicans (ATCC 10231), and mixed molds Aspergillus niger (ATCC 6275) and a Penicillium sp. cosmetic isolate. Tubes containing 20 milliliters of broth were inoculated with approximately 1,500,000 bacteria per gram, 50,000 yeast cells per gram or 100,000 mold spores per gram. Individual challenges were prepared from overnight slants of bacteria and yeast cultures and from heavily sporulating mold cultures, 7 to 10 days old. All samples were plated quantitatively for viable organisms after 24 hours and 8 days.

[2] = test system: mixed molds Aspergillus niger (ATCC 6275) and a Penicillium sp. cosmetic isolate
Source text: as §1

[3] = test system: Staphylococcus aureus (ATCC 6538)
Source text: as §1

[4] = test system: Pseudomonas aeruginosa (ATCC 9027) and Enterobacter gergoviae (cosmetic isolate)
Source text: as §1

For OCCOc1ccccc1 [2-Phenoxyethanol], the “Colony Forming Units per Milliliter of Broth (CFU/ml) after 8 Days” value (from here on “Colony Forming Units per Milliliter”) [1] was 4.0 × 10^3 CFU/ml, the “Colony Forming Units per Milliliter” value [2] was 5.8 × 10^2 CFU/ml and the “Colony Forming Units per Milliliter” value [3] was 3.2 × 10^8 CFU/ml. The “Colony Forming Units per Milliliter” value [4] was 9.1 × 10^7 CFU/ml.
